Five molecules from ChEMBL document CHEMBL4251684, “Trichodermides A-E: New Peptaibols Isolated from the Australian Termite Nest-Derived Fungus Trichoderma virens CMB-TN16” (J Nat Prod, 2018) can be followed below.

For one assay, the system named is Escherichia coli. The assay can be described thus: Antimicrobial activity against Escherichia coli ATCC 11775 after 24 hrs by spectrophotometric method. Type of assay: functional, organism-based. The note with it: DSM 30083 = JCM 1649 = ATCC 11775.
The test system of a further assay is Candida albicans. The assay can be described thus: Antimicrobial activity against Candida albicans ATCC 10231 after 24 hrs by spectrophotometric method. Type of assay: functional, organism-based.
For another assay, the system named is NCI-H460. The assay can be described thus: Cytotoxicity against human NCI-H460 cells assessed as inhibition of cell growth after 48 hrs by MTT assay. The note with it: NCI-H460, 48 h. Format: cell-based. (Tetrazolium assays rely on reduction of a dye to a coloured formazan, in cell work by metabolically active cells.)
In another assay the test system is Candida parapsilosis. The assay can be described thus: Antimicrobial activity against Candida parapsilosis ATCC 22019 after 24 hrs by spectrophotometric method. Format: functional, organism-based.
A further assay has as its system Pseudomonas aeruginosa. The assay can be described thus: Antimicrobial activity against Pseudomonas aeruginosa ATCC 10145 after 24 hrs by spectrophotometric method. Format: functional, organism-based.
In another assay the test system is Pichia kudriavzevii. The assay can be described thus: Antimicrobial activity against Candida krusei ATCC 6258 after 24 hrs by spectrophotometric method. Type of assay: functional, organism-based.
The subject of a further assay is SW-620. The assay can be described thus: Cytotoxicity against human SW620 cells assessed as inhibition of cell growth after 48 hrs by MTT assay. Type of assay: cell-based. The note with it: SW-620, 48 h.
A further assay has as its system Staphylococcus aureus. The assay can be described thus: Antimicrobial activity against Staphylococcus aureus ATCC 25923 after 24 hrs by spectrophotometric method. Format: functional, organism-based.
A further assay concerns Bacillus subtilis. The assay can be described thus: Antimicrobial activity against Bacillus subtilis ATCC 6051 after 24 hrs by spectrophotometric method. Format: functional, organism-based.

SMILES strings stand for the structures. Active and inactive are the calls of the source. No cut-off for these calls is given here. Bounds are passed on as bounds.

Regarding `CC[C@H](C)[C@H](NC(=O)[C@@H]1CCCN1C(=O)C(C)(C)NC(=O)[C@@H](NC(=O)[C@@H](NC(=O)[C@H](CCC(N)=O)NC(=O)[C@@](C)(CC)NC(C)=O)C(C)C)C(C)C)C(=O)N[C@@H](CC(C)C)C(=O)NC(C)(C)C(=O)N1CCC[C@H]1C(=O)N[C@H](CO)C(C)C`, the outcome in the assay with Escherichia coli, in the assay with Candida albicans, with Candida parapsilosis, in the assay with Pseudomonas aeruginosa, in the assay on Pichia kudriavzevii and in the assay with Staphylococcus aureus was inactive. Further, the outcome in the assay on Bacillus subtilis was inactive. The IC50 is more than 30 µM in the assay on NCI-H460 and 27.5 µM with SW-620.

On to `CC[C@@H](C)[C@H](NC(=O)[C@H](CCC(N)=O)NC(=O)C(C)(C)NC(C)=O)C(=O)N[C@H](C(=O)NC(C)(C)C(=O)N1CCC[C@H]1C(=O)N[C@H](C(=O)N[C@@H](CC(C)C)C(=O)NC(C)(C)C(=O)N1CCC[C@H]1C(=O)N[C@H](CO)C(C)C)[C@@H](C)CC)C(C)C`, for which the outcome with Escherichia coli, in the assay on Candida albicans, in the assay with Candida parapsilosis, with Pseudomonas aeruginosa, in the assay with Pichia kudriavzevii and in the assay with Staphylococcus aureus was inactive. For the same molecule, in the assay on Bacillus subtilis, the result was inactive. Also, the IC50 in the assay on NCI-H460 and with SW-620 was more than 30 µM in each case.

For the molecule `CC[C@@H](C)[C@H](NC(=O)[C@H](CCC(N)=O)NC(=O)C(C)(C)NC(C)=O)C(=O)N[C@H](C(=O)NC(C)(C)C(=O)N1CCC[C@H]1C(=O)N[C@H](C(=O)N[C@@H](CC(C)C)C(=O)NC(C)(C)C(=O)N1CCC[C@H]1C(=O)N[C@H](CO)CC(C)C)[C@@H](C)CC)C(C)C`, the outcome in the assay on Escherichia coli, in the assay on Candida albicans, in the assay with Candida parapsilosis, in the assay on Pseudomonas aeruginosa, in the assay with Pichia kudriavzevii and with Staphylococcus aureus was inactive. For the same molecule, the outcome in the assay with Bacillus subtilis was inactive. The IC50 in the assay with NCI-H460 and with SW-620 was more than 30 µM each time.

With `CC[C@@H](C)[C@H](NC(=O)[C@H](CCC(N)=O)NC(=O)[C@@](C)(CC)NC(C)=O)C(=O)N[C@H](C(=O)NC(C)(C)C(=O)N1CCC[C@H]1C(=O)N[C@H](C(=O)N[C@@H](CC(C)C)C(=O)NC(C)(C)C(=O)N1CCC[C@H]1C(=O)N[C@H](CO)CC(C)C)[C@@H](C)CC)C(C)C`, the result in the assay on Escherichia coli, in the assay with Candida albicans, with Candida parapsilosis, in the assay on Pseudomonas aeruginosa, in the assay on Pichia kudriavzevii and in the assay on Staphylococcus aureus was inactive. Also, in the assay with Bacillus subtilis, the result was inactive. Also, the IC50 in the assay with NCI-H460 was found to be 10.9 µM; in the assay with SW-620, 12.8 µM.

On to `CC[C@@H](C)[C@H](NC(=O)[C@H](CCC(N)=O)NC(=O)[C@@](C)(CC)NC(C)=O)C(=O)N[C@H](C(=O)NC(C)(C)C(=O)N1CCC[C@H]1C(=O)N[C@H](C(=O)N[C@@H](CC(C)C)C(=O)NC(C)(C)C(=O)N1CCC[C@H]1C(=O)N[C@H](CO)C(C)C)[C@@H](C)CC)C(C)C`, for which the result with Escherichia coli, in the assay on Candida albicans, with Candida parapsilosis, with Pseudomonas aeruginosa, in the assay on Pichia kudriavzevii and in the assay on Staphylococcus aureus was inactive. In addition, in the assay on Bacillus subtilis, the result was inactive. The IC50 in the assay on NCI-H460 amounted to 19.3 µM; in the assay on SW-620 it was 18.9 µM.

A word on the IC50: it is the concentration needed to halve the response being measured.
